These results are taken from patent US20110092367A1, “Herbicidal Compositions Comprising 4-amino-3,6-dichloropyridine-2-carboxylic Acid” (BASF SE, priority 2008, published 2011).

Usually inhibition stands for the drop in the measured response relative to a control, in per cent.

Assay type in all cases: in vivo
One experiment deals with Capsella bursa-pasturis. The experiment can be described thus: Greenhouse trial, post-emergence: CAPBP. To be noted: post-emergence (Table 10). On the procedure:
(§1) The test plants have been seeded, separately for each species, in plastic containers in sandy loamy soil containing 5% organic matter.
(§2) For the post emergence treatment, the plants were first grown to the 2 leaf station (GS 12). Here, the herbicidal compositions were suspended or emulsified in water as distribution medium and sprayed using finely distributing nozzels.
(§3) The plants have been cultivated due to there individual requirements at 10-25° C. and 20-35° C. The plants were irrigated due to there necessity. […]
(§4) The evaluation for the damage on undesired weeds caused by the chemical compositions was carried out using a scale from 0 to 100%, compared to the untreated control plants. Here, 0 means no damage and 100 means complete destruction of the plants.
(§5) Calculation of expected activity of binary mixtures was done by using the Colby-Formula according to Example 1.

Another experiment has as its system Lamium purpureum. In words: Greenhouse trial, post-emergence: LAMPU. The settings on record: for % activity 28 DAT: LAMPU. On the procedure:
as §1, §2, §3, §4, §5

The test system of experiment [1] is Papaver rhoeas. In words: Greenhouse trial, post-emergence: PAPRH. On the procedure:
as §1, §2, §3, §4, §5

The next experiment has as its system Mercurialis annua. The experiment can be described thus: Greenhouse trial, post-emergence: MERAN. To be noted: for % activity 28 DAT: MERAN. On the procedure:
as §1, §2, §3, §4, §5

In the next experiment the test system is Centauria cyanus. The experiment can be described thus: Greenhouse trial, post-emergence: CENCY. The settings on record: post-emergence; for % activity 28 DAT: CENCY. The method, then:
as §1, §2, §3, §4, §5

The next experiment deals with Alopecurus myosuroides. The experiment can be described thus: Field trial Example 2, combined application: ALOMY. To be noted: Metazachlor 500 g ai/ha solo, 28 DAT. On the procedure:
(§6) Aminiopyralid was used as commercial aquaeous solution having an active ingredient concentration of 240 g/l (Milestone™). Metazachlor was used as a commercial suspension concentrate having an active ingredient concentration of 500 g/l (Butisan S®).
as §4
(§7) The value E, which is to be expected if the activity of the individual compounds is just additive, was calculated using the method of S. R. Colby (1967) “Calculating synergistic and antagonistic responses of herbicide combinations”, Weeds 15, p. 22 ff.
(§8) The performance of aminopyralid, applied as an alone treatment at […] and 15 g ai/ha, and the performance of metazachlor, applied as an alone treatment at 375 and 500 g ai/ha, as well as the mixtures of the both compounds have been assessed in winter oilseed rape field trials. The trials have been conducted in Germany at two locations.
(§9) Post emergence treatment was applied by means of fine distributed nozzels at the growth stage (GS/BBCH 11/12).

A further experiment has as its system Anthemis arvensis. The experiment can be described thus: Field trial Example 2, combined application: ANTAR. The method, then:
as §6, §4, §7, §8, §9

The subject of another experiment is Centaurea cyanus. The experiment can be described thus: Field trial Example 2, combined application: CENCY. The settings on record: Metazachlor 375 g ai/ha solo, 78 DAT. On the procedure:
as §6, §4, §7, §8, §9

For a further experiment, the system named is Matricaria inodora. In words: Field trial Example 2, combined application: MATIN. On the procedure: as §6, §4, §7, §8, §9
The test system of experiment [2] is Papaver rhoeas. The experiment can be described thus: Field trial Example 2, combined application: PAPRH. On the procedure: as §6, §4, §7, §8, §9
For experiment [3], the system named is Stellaria media. In words: Field trial Example 2, combined application: STEME. The settings on record: Metazachlor 500 g ai/ha solo, 28 DAT. On the procedure:
as §6, §4, §7, §8, §9

The next experiment has as its system Matricaria chamomilla. The experiment can be described thus: Greenhouse trial, post-emergence: MATCH. To be noted: solo, 187 g ai/ha, greenhouse. The method, then: as §1, §2
The plants have been cultivated due to there individual requirements at 10-25° C. and 20-35° C. The plants were irrigated due to there necessity.
In the following experiments, the herbicidal activity for the individual herbicide compounds (solo and mixture applications), the herbicidal succession was assessed 14 days after treatment (DAT).
as §4, §5
E=(X+Y+Z)−(X*Y+X*Z+Y*Z/100)+(X*Y*Z/1000)
Tables 6 to 10 relate to the herbicidal activity, in greenhouse trials, of the individual actives and the combination in post-emergence application 14 DAT.

The test system of experiment [4] is Stellaria media. The experiment can be described thus: Greenhouse trial, post-emergence: STEME. The settings on record: flufenacet 60 g ai/ha solo, post-emergence. The method, then:
as §1, §2, §3, §4, §5

Where [5] appears, read: clopyralid 60 g ai/ha solo, post-emergence (Table 10).
The mark [6] stands for this setting: clopyralid 120 g ai/ha solo, post-emergence (Table 10).
Setting [7] is: pethoxamid 600 g ai/ha solo, post-emergence.
The mark [8] stands for this setting: Metazachlor 375 g ai/ha solo, 29 DAT.
The mark [9] stands for this setting: Metazachlor 500 g ai/ha solo, 29 DAT.
The mark [10] stands for this setting: Metazachlor 375 g ai/ha solo, 28 DAT.
Where [11] appears, read: metazachlor 187 g ai/ha solo, post-emergence (Table 10).
The mark [12] stands for this setting: metazachlor 375 g ai/ha solo, post-emergence (Table 10).

For `O=C(O)c1nc(Cl)ccc1Cl` [clopyralid], the “% activity 28 DAT” value with Capsella bursa-pasturis (clopyralid 120 g ai/ha solo) came out at 10%; with Lamium purpureum (setting [5]), 15%; in the experiment with Lamium purpureum (setting [6]), 15%; with Papaver rhoeas [1] (setting [6]), 20%; in the experiment on Mercurialis annua (setting [5]) it was 15%.

On to `COC[C@H](C)N(C(=O)CCl)c1c(C)csc1C` [DMTA-P, Dimethenamid-P], for which the “% activity 28 DAT” value in the experiment with Mercurialis annua (DMTA-P 63 g ai/ha solo, post-emergence) worked out at 15%; in the experiment with Mercurialis annua (DMTA-P 125 g ai/ha solo, post-emergence), 25%; in the experiment on Centauria cyanus (DMTA-P 125 g ai/ha solo), 20%.

In the case of `CCOCCN(C(=O)CCl)C(=C(C)C)c1ccccc1` [pethoxamid], the “% activity 28 DAT” value in the experiment on Papaver rhoeas [1] (setting [7]) was found to be 25%; in the experiment on Mercurialis annua (pethoxamid 150 g ai/ha solo, post-emergence) it was 0%; in the experiment on Mercurialis annua (pethoxamid 300 g ai/ha solo, post-emergence), 0%; with Mercurialis annua (setting [7]), 10%; in the experiment on Centauria cyanus (pethoxamid 150 g ai/ha solo) it was 0%; in the experiment on Centauria cyanus (pethoxamid 300 g ai/ha solo), 25%. For the same compound, the “% activity 28 DAT” value in the experiment on Centauria cyanus (pethoxamid 600 g ai/ha solo) is 30%.

Regarding `Cc1cccc(C)c1N(Cn1cccn1)C(=O)CCl` [metazachlor], the “% activity” value is 82% with Alopecurus myosuroides; 40% in the experiment on Anthemis arvensis (setting [8]); 57% in the experiment with Anthemis arvensis (setting [9]); 60% with Anthemis arvensis (Metazachlor 500 g ai/ha solo, 78 DAT); 32% in the experiment with Centaurea cyanus; 42% in the experiment with Matricaria inodora (setting [10]). In addition, the “% activity” value was 88% in the experiment with Matricaria inodora (setting [8]); 67% in the experiment on Matricaria inodora (Metazachlor 500 g ai/ha solo, 28 DAT); 50% in the experiment with Papaver rhoeas [2] (setting [10]); 55% in the experiment on Papaver rhoeas [2] (setting [8]); 53% in the experiment with Papaver rhoeas [2] (Metazachlor 375 g ai/ha solo, 72 DAT); 55% in the experiment on Papaver rhoeas [2] (Metazachlor 375 g ai/ha solo, 78 DAT). Moreover, the “% activity” value came to 75% in the experiment with Papaver rhoeas [2] (setting [9]) and 88% with Stellaria media [3]. In addition, the “% activity 28 DAT” value in the experiment with Capsella bursa-pasturis (metazachlor 375 g ai/ha solo) worked out at 25%; with Lamium purpureum (setting [11]), 75%; in the experiment with Lamium purpureum (setting [12]) it was 75%; in the experiment with Papaver rhoeas [1] (setting [12]), 30%; in the experiment with Mercurialis annua (setting [11]) it was 15%. The inhibition at 187 g/ha amounted to 75% in the experiment with Lamium purpureum (Lamium purpureum, 672 h, solo, 187 g ai/ha, post-emergence, greenhouse, 28 DAT); 15% in the experiment with Mercurialis annua (Mercurialis annua, 672 h, solo, 187 g ai/ha, post-emergence, greenhouse, 28 DAT); 10% with Matricaria chamomilla; 20% in the experiment with Centauria cyanus (672 h, solo, 187 g ai/ha, greenhouse, 28 DAT).

Turning to `CC(C)N(C(=O)COc1nnc(C(F)(F)F)s1)c1ccc(F)cc1` [flufenacet], the “% activity 28 DAT” value turned out to be 60% in the experiment on Lamium purpureum (flufenacet 60 g ai/ha solo, post-emergence); 60% with Lamium purpureum (flufenacet 120 g ai/ha solo, post-emergence); 0% in the experiment on Stellaria media [4]; 0% with Centauria cyanus (flufenacet 60 g ai/ha solo); 20% with Centauria cyanus (flufenacet 120 g ai/ha solo).
